Measured values reported in patent US10757941B2, “Microbiocidal oxadiazole derivatives” (SYNGENTA PARTICIPATIONS AG, priority 2016, dated 2020).

Assays:
Uromyces viciae-fabael = assay: Fungicidal activity against Uromyces viciae-fabae / field bean / leaf disc preventative (faba-bean rust); assay type: in vivo; settings: foliar, 288 h, 100 ppm in the applied formulation, field bean leaf discs, preventative (inoculated two hours after application), assessed 12 days after application, compared to untreated, read-out: disease control
Method: Leaf disks or leaf segments of various plant species are cut from plants grown in a greenhouse. The cut leaf disks or segments are placed in multiwell plates (24-well format) onto water agar. The leaf disks are sprayed with a test solution before (preventative) or after (curative) inoculation. Compounds to be tested are prepared as DMSO solutions (max. 10 mg/ml) which are diluted to the appropriate concentration with 0.025% Tween20 just before spraying. The inoculated leaf disks or segments are incubated under defined conditions (temperature, relative humidity, light, etc.) according to the respective test system. A single evaluation of disease level is carried out 3 to 14 days after inoculation, depending on the pathosystem. Percent disease control relative to the untreated check leaf disks or segments is then calculated. Example 5: Fungicidal Activity Against Uromyces viciae-fabael Field Bean/Leaf Disc Preventative (Faba-Bean Rust) Field bean leaf discs are placed on water agar in multiwell plates (96-well format) and 10 μl of the formulated test compound diluted in acetone and a spreader pipetted onto the leaf disc. Two hours after application leaf discs are inoculated by spraying a spore suspension on the lower leaf surface. The leaf discs are incubated in a climate cabinet at 22° C. with 18 hour day and 70% relative humidity. The activity of a compound is assessed as percent disease control compared to untreated when an appropriate level of disease damage appears in untreated check leaf disks (12 days after application). The following compounds at 100 ppm in the applied formulation give at least 80% disease control in this test when compared to untreated control leaf discs under the same conditions, which show extensive disease development.

[1] = test system: Puccinia recondita f. Sp. Tritici; assay: Fungicidal activity against Puccinia recondita f. sp. tritici / wheat / leaf disc preventative (brown rust); assay type: in vivo; settings: foliar, 200 ppm in the applied formulation, wheat leaf segments cv. Kanzler, preventative (inoculated 1 day after application), assessed 7 to 9 days after application, compared to untreated, read-out: disease control
Method: Leaf disks or leaf segments of various plant species are cut from plants grown in a greenhouse. The cut leaf disks or segments are placed in multiwell plates (24-well format) onto water agar. The leaf disks are sprayed with a test solution before (preventative) or after (curative) inoculation. Compounds to be tested are prepared as DMSO solutions (max. 10 mg/ml) which are diluted to the appropriate concentration with 0.025% Tween20 just before spraying. The inoculated leaf disks or segments are incubated under defined conditions (temperature, relative humidity, light, etc.) according to the respective test system. A single evaluation of disease level is carried out 3 to 14 days after inoculation, depending on the pathosystem. Percent disease control relative to the untreated check leaf disks or segments is then calculated. Example 1: Fungicidal Activity Against Puccinia recondita f. Sp. Tritici/Wheat/Leaf Disc Preventative (Brown Rust) Wheat leaf segments cv. Kanzler were placed on agar in multiwell plates (24-well format) and sprayed with the formulated test compound diluted in water. The leaf disks were inoculated with a spore suspension of the fungus 1 day after application. The inoculated leaf segments were incubated at 19° C. and 75% relative humidity (rh) under a light regime of 12 hours light/12 hours darkness in a climate cabinet and the activity of a compound was assessed as percent disease control compared to untreated when an appropriate level of disease damage appears in untreated check leaf segments (7 to 9 days after application). The following compounds at 200 ppm in the applied formulation give at least 80% disease control in this test when compared to untreated control leaf disks under the same conditions, which show extensive disease development.

[2] = test system: Glomerella lagenarium (Colletotrichum lagenarium); assay: Fungicidal activity against Glomerella lagenarium (Colletotrichum lagenarium) liquid culture / cucumber / preventative (anthracnose); assay type: cell-based; settings: Colletotrichum orbiculare; 20 ppm in the applied formulation; liquid culture in PDB, 24° C.; inhibition of growth measured photometrically 3 to 4 days after application; compared to untreated; read-out: disease control
Method: Mycelia fragments or conidia suspensions of a fungus prepared either freshly from liquid cultures of the fungus or from cryogenic storage, are directly mixed into nutrient broth. DMSO solutions of the test compound (max. 10 mg/ml) are diluted with 0.025% Tween20 by a factor of 50 and 10 μl of this solution is pipetted into a microtiter plate (96-well format). The nutrient broth containing the fungal spores/mycelia fragments is then added to give an end concentration of the tested compound. The test plates are incubated in the dark at 24° C. and 96% relative humidity. The inhibition of fungal growth is determined photometrically after 2 to 7 days, depending on the pathosystem, and percent antifungal activity relative to the untreated check is calculated. Example 4: Fungicidal Activity Against Glomerella lagenarium (Colletotrichum lagenarium) Liquid Culture/Cucumber/Preventative (Anthracnose) Conidia of the fungus from cryogenic storage are directly mixed into nutrient broth (PDB—potato dextrose broth). After placing a (DMSO) solution of test compound into a microtiter plate (96-well format), the nutrient broth containing the fungal spores is added. The test plates are incubated at 24° C. and the inhibition of growth is measured photometrically 3 to 4 days after application. The following compounds at 20 ppm in the applied formulation give at least 80% disease control in this test when compared to untreated control under the same conditions, which show extensive disease development.

Phakopsora pachyrhizi = assay: Fungicidal activity against Phakopsora pachyrhizi / soybean / leaf disc preventative (Asian soybean rust); assay type: in vivo; settings: foliar, 200 ppm in the applied formulation, soybean leaf disks, preventative (inoculated one day after application), assessed 12 to 14 days after application, compared to untreated, read-out: disease control
Method: Leaf disks or leaf segments of various plant species are cut from plants grown in a greenhouse. The cut leaf disks or segments are placed in multiwell plates (24-well format) onto water agar. The leaf disks are sprayed with a test solution before (preventative) or after (curative) inoculation. Compounds to be tested are prepared as DMSO solutions (max. 10 mg/ml) which are diluted to the appropriate concentration with 0.025% Tween20 just before spraying. The inoculated leaf disks or segments are incubated under defined conditions (temperature, relative humidity, light, etc.) according to the respective test system. A single evaluation of disease level is carried out 3 to 14 days after inoculation, depending on the pathosystem. Percent disease control relative to the untreated check leaf disks or segments is then calculated. Example 3: Fungicidal Activity Against Phakopsora pachyrhizi/Soybean/Leaf Disc Preventative (Asian Soybean Rust) Soybean leaf disks are placed on water agar in multiwell plates (24-well format) and sprayed with the formulated test compound diluted in water. One day after application leaf discs are inoculated by spraying a spore suspension on the lower leaf surface. After an incubation period in a climate cabinet of 24-36 hours in darkness at 20° C. and 75% rh leaf disc are kept at 20° C. with 12 h light/day and 75% rh. The activity of a compound is assessed as percent disease control compared to untreated when an appropriate level of disease damage appears in untreated check leaf disks (12 to 14 days after application). The following compounds at 200 ppm in the applied formulation give at least 80% disease control in this test when compared to untreated control leaf disks under the same conditions, which show extensive disease development.

| Compound | pest or weed control at 100 ppm (Uromyces viciae-fabael) [%] | pest or weed control at 200 ppm [1] [%] | inhibition of growth at 20 ppm [2] [%] | pest or weed control at 200 ppm (Phakopsora pachyrhizi) [%] |
| --- | --- | --- | --- | --- |
| O=C(NCCCCc1ccccc1)c1ccc(-c2noc(C(F)(F)F)n2)c(F)c1 [Compound 1.1, 3-fluoro-N-(4-phenylbutyl)-4-[5-(trifluoromethyl)-1,2,4-oxadiazol-3-yl]benzamide] | ≥ 80 | ≥ 80 | ≥ 80 |  |
| Cc1ccc(C)c(CNC(=O)c2ccc(-c3noc(C(F)(F)F)n3)c(F)c2)c1 [Compound 1.3, N-[(2,5-dimethyl-phenyl)methyl]-3-fluoro-4-[5-(trifluoromethyl)-1,2,4-oxadiazol-3-yl]benzamide] | ≥ 80 | ≥ 80 |  | ≥ 80 |
| O=C(NC1CCSCC1)c1ccc(-c2noc(C(F)(F)F)n2)c(F)c1 [Compound 1.7, 3-fluoro-N-tetrahydro-thiopyran-4-yl-4-[5-(trifluoromethyl)-1,2,4-oxadiazol-3-yl]benzamide] | ≥ 80 |  |  |  |
| O=C(Nc1ccnc2ncnn12)c1ccc(-c2noc(C(F)(F)F)n2)c(F)c1 [Compound 1.9, 3-fluoro-N-([1,2,4]triazolo[1,5-a]pyrimidin-7-yl)-4-[5-(trifluoromethyl)-1,2,4-oxadiazol-3-yl]benzamide] | ≥ 80 | ≥ 80 | ≥ 80 |  |
| CN1CCC2(CC1)CC(NC(=O)c1ccc(-c3noc(C(F)(F)F)n3)c(F)c1)C2 [Compound 1.11, 3-fluoro-N-(7-methyl-7-azaspiro[3.5]nonan-2-yl)-4-[5-(trifluoromethyl)-1,2,4-oxadiazol-3-yl]benzamide] | ≥ 80 |  |  | ≥ 80 |
| O=C(NC1CCc2ccccc21)c1ccc(-c2noc(C(F)(F)F)n2)c(F)c1 (centres unmarked) [Compound 1.15, 3-fluoro-N-indan-1-yl-4-[5-(trifluoromethyl)-1,2,4-oxadiazol-3-yl]benzamide] | ≥ 80 | ≥ 80 |  | ≥ 80 |
| CCOc1ccc(CN(C(=O)c2ccc(-c3noc(C(F)(F)F)n3)c(F)c2)C(C)C)cc1OCC [Compound 1.17, N-[(3,4-diethoxyphenyl)methyl]-3-fluoro-N-isopropyl-4-[5-(trifluoromethyl)-1,2,4-oxadiazol-3-yl]benzamide] | ≥ 80 | ≥ 80 | ≥ 80 |  |
| O=C(c1ccc(-c2noc(C(F)(F)F)n2)c(F)c1)N(Cc1ccc2c(c1)OCO2)CC1OCCO1 [Compound 1.18, N-(1,3-benzodioxol-5-ylmethyl)-N-(1,3-dioxolan-2-ylmethyl)-3-fluoro-4-[5-(trifluoromethyl)-1,2,4-oxadiazol-3-yl]benzamide] | ≥ 80 | ≥ 80 | ≥ 80 |  |
| CCOc1ccc(CN(CC2OCCO2)C(=O)c2ccc(-c3noc(C(F)(F)F)n3)c(F)c2)cc1OCC [Compound 1.19, N-[(3,4-diethoxyphenyl)methyl]-N-(1,3-dioxolan-2-ylmethyl)-3-fluoro-4-[5-(trifluoromethyl)-1,2,4-oxadiazol-3-yl]benzamide] | ≥ 80 |  | ≥ 80 |  |
| CC1CCCC(C)N1CCNC(=O)c1ccc(-c2noc(C(F)(F)F)n2)c(F)c1 (centres unmarked) [Compound 1.21, N-[2-(2,6-dimethyl-1-piperidyl)ethyl]-3-fluoro-4-[5-(trifluoromethyl)-1,2,4-oxadiazol-3-yl]benzamide] | ≥ 80 |  |  |  |
| CCC(C#N)(COc1ccc(C#N)cc1)NC(=O)c1ccc(-c2noc(C(F)(F)F)n2)c(F)c1 (centres unmarked) [Compound 1.24, N-[1-cyano-1-[(4-cyanophenoxy)methyl]propyl]-3-fluoro-4-[5-(trifluoromethyl)-1,2,4-oxadiazol-3-yl]benzamide] |  | ≥ 80 |  |  |
| CCOC(=O)C(CC(F)(F)F)NC(=O)c1ccc(-c2noc(C(F)(F)F)n2)c(F)c1 (centres unmarked) [Compound 1.26, ethyl 4,4,4-trifluoro-2-[[3-fluoro-4-[5-(trifluoromethyl)-1,2,4-oxadiazol-3-yl]benzoyl]amino] butanoate] | ≥ 80 | ≥ 80 |  |  |
| N#CCCN(CCC#N)C(=O)c1ccc(-c2noc(C(F)(F)F)n2)c(F)c1 [Compound 1.29, N,N-bis(2-cyanoethyl)-3-fluoro-4-[5-(trifluoromethyl)-1,2,4-oxadiazol-3-yl]benzamide] | ≥ 80 |  |  |  |
| CC(C)C(C)(C#N)NC(=O)c1ccc(-c2noc(C(F)(F)F)n2)c(F)c1 (centres unmarked) [Compound 1.30, N-(1-cyano-1,2-dimethyl-propyl)-3-fluoro-4-[5-(trifluoromethyl)-1,2,4-oxadiazol-3-yl]benzamide] |  | ≥ 80 | ≥ 80 |  |
| O=C(NCCCn1ccnc1)c1ccc(-c2noc(C(F)(F)F)n2)c(F)c1 [Compound 1.32, 3-fluoro-N-(3-imidazol-1-ylpropyl)-4-[5-(trifluoromethyl)-1,2,4-oxadiazol-3-yl]benzamide] | ≥ 80 |  |  |  |
| O=C(Nc1ccccc1)c1ccc(-c2noc(C(F)(F)F)n2)c(F)c1 [Compound 1.33, 3-fluoro-N-phenyl-4-[5-(trifluoromethyl)-1,2,4-oxadiazol-3-yl]benzamide] | ≥ 80 |  |  |  |
| O=C(NC1CC1c1ccccc1)c1ccc(-c2noc(C(F)(F)F)n2)c(F)c1 (centres unmarked) [Compound 1.34, 3-fluoro-N-(2-phenylcyclopropyl)-4-[5-(trifluoromethyl)-1,2,4-oxadiazol-3-yl]benzamide] | ≥ 80 |  |  |  |
| CC(C)(C)CC(C)(C)NC(=O)c1ccc(-c2noc(C(F)(F)F)n2)c(F)c1 [Compound 1.37, 3-fluoro-N-(1,1,3,3-tetramethylbutyl)-4-[5-(trifluoromethyl)-1,2,4-oxadiazol-3-yl]benzamide] | ≥ 80 |  | ≥ 80 |  |
